The record followed here is paper PMC5312321, “A general strategy to optimize immunogenicity of HLA-B*0702 restricted cryptic peptides from tumor associated antigens: Design of universal neo-antigen like tumor vaccines for HLA-B*0702 positive patients” (Oncotarget, 2016).

“Also recorded” adds a separate entry of the source. Marks after values point to notes of the source that are not given here.

The target of assay [1] is T1, HLA-B*0702 (Homo sapiens, UniProt P01889).
T1 construct: expressed in transfected cells; host or cells: human T2-B7 cells (T2 transfected with HLA-B*0702)
In words: Measurement of peptide relative affinity to HLA-B*0702 (surface expression on T2-B7 cells). The following applies: for RA (Relative Affinity): 37°C 16 hours, peptide 100 μM to 0.1 μM, ME-1 mAb staining, RA = concentration inducing 20% of HLA-B*0702 expression / that of reference R10V, mean ± SD, at least three experiments, ≥ 10 = 10 or not measurable; for binding to / affinity for HLA-B*0702 (in words): relative to reference peptide R10V. Format: cell-based. As to the method:
The protocol used has been described previously. Briefly, T2-B7 cells were incubated at 37°C for 16 hours with peptides concentrations ranging from 100 μM to 0.1 μM (100 μM, 10 μM, 1 μM and 0.1μM), and then stained with ME-1 monoclonal antibody (mAb) to quantify the surface expression of HLA-B*0702. For each peptide concentration, the HLA-B*0702 specific staining was calculated as the percentage of staining obtained with 100 μM of the reference peptide CMV265–274 (R10V; […], SEQ ID NO: 9). The relative affinity (RA) was determined as: RA = (Concentration of each peptide that induces 20% of HLA-B*0702-expression/Concentration of the reference R10V peptide that induces 20% of HLA-B*0702 expression). In case of non-binders peptide, RA is not evaluable since the 20% of HLA-B*0702 expression is not reach even with the highest concentration of peptide.

The subject of assay [2] is HLA-B*0702 transgenic mice. In words: Vaccination of HLA-B*0702 transgenic mice; specific CTLs detected by cytotoxicity or IFNγ ELISPOT. The conditions noted are these: for Immunogenicity (number of responding mice/number of vaccinated mice): native peptides, 100 μg peptide in IFA s.c. with HBVcore128 helper epitope, twice at two weeks interval; for immunogenicity in HLA-B*0702 transgenic mice (in words): specific CTL induction after vaccination, cytotoxicity (ratio 30/1) or IFNγ ELISpot. The class given is in vivo, mouse. As to the method:
The HLA-B7 H-2 class-I knockout mice were previously described.
Mice were injected subcutaneously with 100 μg of peptide emulsified in Incomplete Freund's Adjuvant (IFA) in the presence of 150 μg of the I-A^b restricted HBVcore128 T helper epitope ([…]) twice at two weeks interval.
A particular protocol was applied for MAGE-A 274L9, with two injections of this peptide at two weeks interval and 15 days later one injection with each one of the native peptide.
On day 6 of culture the bulk responder populations were tested for specific cytotoxicity. […] Percentage of specific lysis was determined as: % Lysis = (Experimental Release-Spontaneous Release) / (Maximal Release-Spontaneous Release) × 100. Spontaneous release is obtained using medium only, maximum release with HCl 0.1 M.
Seven days after the last vaccination, spleens were removed and T cells were isolated by Ficoll centrifugation and tested ex vivo for the recognition of 10 μM of either the native or optimized peptide. IFNγ producing T cells were quantified by ELISpot using the Diaclone Kit Murine IFNγ ELISpot (Besançon, France) according to manufacturer's recommendations. 250 000 spleen T cells were distributed per well and tested for the recognition of 10 μM of either the native or optimized peptide. Positive control was Concanavalin A and negative control was medium alone. All conditions were tested in sixplicates.

For “EPFTKAEML [MAGE-A2_121, MAGE-A derived native cryptic peptide]”, in assay [1], the “RA (Relative Affinity)” value is listed as at least 10 and the “binding to / affinity for HLA-B*0702 (in words)” value (shortened to “binding to / affinity”) was “low affinity”.

Turning to “EPVTKAEML [MAGE-A1_121, MAGE-A derived native cryptic peptide]”, in assay [1], the “RA (Relative Affinity)” value is at least 10 and the “binding to / affinity” value is “low affinity”.

In the case of “GPRALVETS [MAGE-A3_274, native peptide shared by MAGE-A3 and MAGE-A12]”, in assay [2], the “Immunogenicity (number of responding mice/number of vaccinated mice)” value was 2/3* and the “immunogenicity in HLA-B*0702 transgenic mice (in words)” value (shortened to “immunogenicity … (in words)”) is on record as “very weak immunogenicity; also recorded: very weakly immunogenic”.

With “APRSLGLEL [Hsp70_397 R3L9, optimized Hsp70_397, arginine at position 3 and leucine at C-terminal position]”, in assay [1] (SD), the “RA (Relative Affinity)” value turned out to be 1 ± 0.6. Further, the “binding to / affinity” value in assay [1] is “high HLA-B*0702 affinity”.

Consider “GPRALAETS [MAGE-A1_267, native peptide shared by MAGE-A1 and MAGE-A4]”, for which, in assay [2], the “Immunogenicity (number of responding mice/number of vaccinated mice)” value is reported as 0/3 and the “immunogenicity … (in words)” value is recorded as “non immunogenic”.

Consider “APRGVPQIEV [HSP70_466, HSP70 derived native peptide]”, for which, in assay [2], the “Immunogenicity (number of responding mice/number of vaccinated mice)” value was 3/3 and the “immunogenicity … (in words)” value is recorded as “immunogenic”.

Take “YPEEISSMVL [Hsp70_115, Hsp70 derived native cryptic peptide]”: the “immunogenicity … (in words)” value in assay [2] is “only the high affinity TERT4 was immunogenic”. In addition, in assay [1], the “RA (Relative Affinity)” value is listed as at least 10 and the “binding to / affinity” value was “low affinity”.

As to “EPITKAEIL [MAGE-A4_121, MAGE-A derived native cryptic peptide]”, in assay [1], the “RA (Relative Affinity)” value is at least 10 and the “binding to / affinity” value is listed as “low affinity”.

Turning to “APLSLGLET [Hsp70_397, Hsp70 derived native cryptic peptide]”, the “immunogenicity … (in words)” value in assay [2] is given as “only the high affinity TERT4 was immunogenic”. Moreover, in assay [1], the “RA (Relative Affinity)” value is reported as at least 10 and the “binding to / affinity” value is “low affinity”.

For the sequence “GPKHSDCLA [Her2/neu246, Her2/neu derived native peptide]”, in assay [2], the “Immunogenicity (number of responding mice/number of vaccinated mice)” value is on record as 0/9 and the “immunogenicity … (in words)” value is given as “non immunogenic”.

As for “SPKANKEIL [Her2/neu760, Her2/neu derived native peptide]”, in assay [2], the “Immunogenicity (number of responding mice/number of vaccinated mice)” value was 4/9 and the “immunogenicity … (in words)” value is on record as “immunogenic”.

With “SPREGPLPA [Her2/neu1151, Her2/neu derived native peptide]”, in assay [2], the “Immunogenicity (number of responding mice/number of vaccinated mice)” value is listed as 1/3. Also, the figures for the “immunogenicity … (in words)” value in assay [2] (listed as HER2/neu1151) and in assay [2] (listed as HER-2/neu1151) were “immunogenic” and “very weakly immunogenic”, respectively.

On to “APRCRAVRSL [TERT4, TERT derived peptide with complete consensus motif A1P2R3L9, control, dominant peptide]”, for which the “immunogenicity … (in words)” value in assay [2] is listed as “immunogenic”. The “RA (Relative Affinity)” value in assay [1] (SD) turned out to be 0.74 ± 0.12. Moreover, the “binding to / affinity” value in assay [1] is “strongly bind to HLA-B*0702; also recorded: strong affinity”.

In the case of “APRSPLAPS [Her2/neu1069, Her2/neu derived native peptide]”, in assay [2], the “Immunogenicity (number of responding mice/number of vaccinated mice)” value is 5/7 and the “immunogenicity … (in words)” value is “immunogenic”.

With “APRTKAEML [MAGE-A1_121 A1R3, optimized MAGE-A1_121, alanine at position 1 and arginine at position 3]”, the “RA (Relative Affinity)” value in assay [1] (SD) turned out to be 2.36 ± 0.28. Further, in assay [1], the “binding to / affinity” value is on record as “high HLA-B*0702 affinity”.

Turning to “GPRALIETS [MAGE-A2_274, native peptide shared by MAGE-A2 and MAGE-A6]”, in assay [2], the “Immunogenicity (number of responding mice/number of vaccinated mice)” value is 0/3 and the “immunogenicity … (in words)” value is reported as “non immunogenic”.

Take “YPVTNAVITV [Hsp70_137, Hsp70 derived native cryptic peptide]”: in assay [2], the “immunogenicity … (in words)” value is given as “only the high affinity TERT4 was immunogenic”. Besides, in assay [1], the “RA (Relative Affinity)” value is reported as at least 10 and the “binding to / affinity” value is given as “low affinity”.

For the sequence “DPRRLVQLL [TERT444, TERT derived native cryptic peptide]”, the “immunogenicity … (in words)” value in assay [2] is given as “only the high affinity TERT4 was immunogenic; also recorded: non-immunogenic”. In assay [1], the “RA (Relative Affinity)” value was at least 10 and the “binding to / affinity” value is recorded as “low affinity”.

With “SPRLQLSND [CEA188, CEA derived native peptide]”, in assay [2], the “Immunogenicity (number of responding mice/number of vaccinated mice)” value is given as 0/3 and the “immunogenicity … (in words)” value is given as “non immunogenic”.

Regarding “APVTKAEML [MAGE-A1_121 A1, MAGE-A1_121 with alanine at position 1]”, in assay [1], the “RA (Relative Affinity)” value is listed as at least 10 and the “binding to / affinity” value is “fail to bind to HLA-B*0702 with high affinity”.
